Tests used:
Liver = experiment: Ex-vivo luminescence signal from liver after IV Fluc mRNA LNPs in CD1 mice (IVIS); conditions: tail vein 1.0 mg/kg Day 0 and Day 2, imaging 18 hours after second dose, Table 4
MC38.K tumors = experiment: Intratumor delivery of Firefly Luciferase mRNA-LNPs in MC38.K tumor-bearing mice (IVIS); assay type: in vivo; conditions: Albino B6 mice, MC38.K tumors 250 mm^3, 1.0 mg/kg intratumoral, IVIS 18 hours post dose
Description: Intratumor Delivery of Compound 23 versus Benchmark 1. Albino B6 mice were inoculated with MC38.K cancer cells. Once tumors reached 250 mm^3, 1.0 mg/kg of Firefly Luciferase mRNA-LNPs containing either Benchmark 1 or Compound 23 as the ionizable lipid component was dosed intratumorally. Takedown and IVIS imaging were performed 18 hours post dose. N=5 mice per group.

B16F10 Cell Line = experiment: Transfection of B16F10 Cell Line with FLuc mRNA LNPs (ONE-Glo EX luciferase signal); assay type: cell-based; conditions: 200 ng Fluc mRNA-LNP, 24 hours; Table 4
Method in brief: (§1)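 Firefly luciferase luminescence measured 24 h after transfection with 200 ng mRNA-LNP per well in Opti-MEM. Seeding: 5,000 cells/well for B16F10 and MC38.K, 20,000 for AML12. LNPs were pre-incubated 30 min with mouse serum; mRNA content determined by RiboGreen.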

AML12 Cell Line = experiment: Transfection of AML12 Cell Line with FLuc mRNA LNPs (ONE-Glo EX luciferase signal); assay type: cell-based; conditions: 200 ng Fluc mRNA-LNP, 24 hours; Table 4
Method in brief: as §1

C57BL/6 mice = experiment: Multi-dose tolerability screening of NT-beta-Actin mRNA LNPs in MC38.K-inoculated C57BL/6 mice; assay type: in vivo; conditions: C57BL/6 mice with MC38.K, 1.0 mg/kg IV twice a week for two weeks
Description: NT-beta-Actin mRNA LNPs with different ionizable lipids were administered IV to C57BL/6 mice, inoculated with MC38.K cells, via the tail vein for a total of four doses (twice a week for two consecutive weeks) at a concentration of 1.0 mg/kg. Bodyweights were monitored and blood was collected pre-dose, 24 hours post first dose, 24 hours post fourth dose, and analyzed for cytokines, blood chemistry, and liver/spleen weights. Compounds 23, 99 and 101 were formulated using a peripheral process method. C57BL/6 mice were inoculated with MC38.K cells. Once tumors had grown, 1.0 mg/kg (Beta-Actin mRNA) of each LNP was intravenously administered twice a week for two weeks. […] N=6 per group for bodyweights, N=3 for blood analysis. Mean+/−SD.

[1] = test system: Macaca fascicularis Cynomolgus monkeys; experiment: NHP study 2: weekly IV infusion of hEPO mRNA-LNP; assay type: in vivo; conditions: weekly IV infusion 0.1 mg/kg hEPO mRNA-LNP
Description: Male cynomolgus monkeys (Biomere, Richmond CA) were 4-6 years old and weighed 4-7 kg at the initiation of dosing. Monkeys were housed in stainless steel cages and provided with Monkey Diet 5038 daily except during times of fasting. Filtered tap water was provided to the animals ad libitum including during fasting times. Temperature of the animal room was kept between 64-84° F., humidity of 30-70%, and with a light/dark cycle of 12 hours except during designated procedures. Pre-dosing treatment with Famotidine (0.5 mg/kg), Diphenhydramine (5 mg/kg), and Dexamethasone (1 mg/kg) was performed prior to dosing of LNPs. Animals received weekly intravenous IV infusions of human erythropoietin encapsulated mRNA lipid nanoparticles (Compound 23, hEPO mRNA-LNP, 0.1 mg/kg). A total of four doses were administered. Prior and after dosing, body weights and temperature were monitored and blood samples were collected pre-dose, 2, 6, 24, 48, and 168 hours. All procedures were conducted according to the approved IACUC guidelines. The results are shown in FIG. 14, FIG. 15, FIG. 16, and FIG. 17.

MC38.K Cell Line = experiment: Transfection of MC38.K Cell Line with FLuc mRNA LNPs (ONE-Glo EX luciferase signal); assay type: cell-based; conditions: 200 ng Fluc mRNA-LNP, 24 hours; Table 4
Method in brief: as §1

Balb/c mice = experiment: Multi-dose tolerability screening of NT-beta-Actin mRNA LNPs in naive Balb/c mice; assay type: in vivo; conditions: 1.0 mg/kg IV twice a week for four weeks
Description: Multi-dose Tolerability Screening of Compound 23-LNPs: Compound 23 and Benchmark 1 were formulated using a standard process method and injected (1.0 mg/kg, IV) twice a week for four weeks into naïve Balb/c mice. NT-beta-Actin mRNA LNPs were administered IV to Balb/c mice via the tail vein for a total of eight doses (twice a week for four consecutive weeks) at a concentration of 1.0 mg/kg. Bodyweights were monitored and blood was collected pre-dose, 24 hours post first dose, 24 hours post-fourth dose, and 24 hours post-eighth dose and analyzed for cytokines, blood chemistry, and liver/spleen weights. Data analysis was performed in Graphpad Prism 10. Values are reported as mean+/−standard deviation, unless specified otherwise. […] N=6 per group.

[2] = Formulation of mRNA encapsulated lipid nanoparticles (microfluidic mixing, ribogreen assay); assay type: physicochemical; conditions: Table 4
Description: mRNA encapsulated lipid nanoparticles (mRNA LNPs) were formulated using microfluidic mixing with a PNI Ignite instrument. Briefly, lipids (ionizable: structural: helper: PEG) were dissolved in ethanol and mixed with and aqueous solution of mRNA. These mRNA-loaded dispersions were then neutralized via a buffer exchange with a pre-determined buffer overnight. Afterwards, formed LNPs were concentrated with Amicon filter centrifugation, filtered, concentration of mRNA determined through a ribogreen assay, and frozen at −80° C. until use.

Structure (SMILES)	Total Liver Tissue Luciferin Signal (Photons/s) Ex-vivo - CD1 (Liver)	intratumor delivery performance (MC38.K tumors)	Total Luciferin Signal (RLU) In Vitro - B16F10 (B16F10 Cell Line)	Total Luciferin Signal (RLU) In Vitro - AML12 (AML12 Cell Line)	survival (C57BL/6 mice)	tolerability (body weight, temperature, liver blood chemistry) ([1]; 4 doses)	generation of red blood cells (hematocrit, absolute reticulocyte counts) ([1]; four doses)	hEPO protein expression over repeated doses ([1]; four doses)	clearance of the lipid from blood / serum ([1]; repeated doses)	Total Luciferin Signal (RLU) In Vitro - MC38.K (MC38.K Cell Line)	bodyweights or survival rate (Balb/c mice; among Compound 23, Benchmark 1 and delivery buffer)	tolerability (Balb/c mice; versus delivery buffer)	mRNA encapsulation in LNP [2]
CCCCCCCCCOC(=O)CCCCCCCN(CCO)CCCCCCCC(=O)OC(CCCCCCCC)CCCCCCCCF (stereo not shown) [Compound 23]	5.15E+09 Photons/s	comparable delivery performance as that of Benchmark 1	9.60E+05 RLU	4.66E+05 RLU	all mice survived	reasonable tolerability	consistent generation of red blood cells over four repeated doses	consistent protein expression over repeated doses	cleared from the blood without any observation of accumulation over repeated doses	2.00E+06 RLU	Comparable bodyweights or survival rate	comparable tolerability	
CCCCCCCCCOC(=O)CCCCCCCN(CCF)CCCCCCCC(=O)OC(CCCCCCCC)CCCCCCCC [Compound 43]													Inherent Lipid Properties Result in No mRNA Encapsulation
